Laboratory results reported in patent US10905782B2, “Compositions for enhancing transport of molecules into cells” (priority 2003, dated 2021).

What was measured:
[1] = system: 705 splice site (luciferase gene interrupted by a human β-globin intron mutated at nucleotide 705); assay: pLuc/705 splice correction assay: luciferase production in HeLa pLuc/705 cells; type: cell-based; settings: splice-correction assay monitored over time
Experimental: The data described below was obtained by targeting a β-globin splice correction sequence fused to luciferase.
Other cell lines were obtained from ATCC (Manassas, Va.). […] All assays were carried out with exponentially growing cells in culture media containing 10% fetal bovine serum (FBS) unless otherwise specified.
This assay measures the ability of steric blocking oligomers to enter cells and nuclei, block incorrect splicing of pre-mRNA, and thus cause expression of a reporter gene. It avoids the confusion of cytotoxicity with activity that can affect down-regulation assays, as cells must be able to carry out RNA processing and translation to produce a signal. Because oligomers must enter cells and cell nuclei to produce a signal in the assay, it is very useful for measuring uptake and effectiveness of delivery moieties.
The time course of the uptake of various transporter-PMO-fluorescein conjugates, as described above, in HeLa pLuc/705 cells was studied by fluorescence spectroscopy. Experiments were generally run in triplicate. According to the general procedure, culture medium containing the test substance at a specified concentration was added to HeLa pLuc/705 cells plated in a 48-well plate. After incubation, at each time point, the cells were washed with PBS three times, and the cell lysate was collected as described under “Fluorometry”, above. The amount of functional luciferase produced was determined by mixing 30 μl of cell lysate and 50 μl of Luciferase Assay Reagent (LAR) (Promega, Wis.) and measuring the light production using a Flx 800 microplate fluorescence/luminescence reader (Bio-tek, Vermont). The relative light units were normalized to μg of protein determined by the bicinchoninic acid (BCA) method, following the manufacturer's procedure (Pierce, Ill.).

[2] = system: HeLa pLuc705 derived from HeLa S3, HeLa, NIH3T3, and Jurkat; assay: Cellular uptake by fluorescent microscopy in live cells; type: cell-based
Experimental: HeLa pLuc/705 (Kang, Cho et al. 1998) is a HeLa S3 cell line stably transfected with a plasmid carrying the luciferase coding sequence interrupted by a mutated human β-globin intron 2 (Gene Tools, Philomath, Oreg.). Other cell lines were obtained from ATCC (Manassas, Va.). The PMO's were 3′-labeled with fluorescein as described in Example 1. To avoid artifacts, all fluorescent images were taken from live cells, and no fixative agent or mounting media were used.
Cells were plated onto a 48-well plate. The next day the conditioned medium was removed and the test substances in fresh medium were added to the wells. After incubation, the cells were washed with phosphate-buffered saline (PBS) three times and visualized directly in the culture medium with a Nikon Diaphot 300 inverted microscope. Images were captured with an Olympus digital camera connected to a computer using MagnaFire software (Optronics, Goleta, Calif.).

HeLa pLuc705 cells = assay: Fluorometry: association (adsorption) of fluorescein-labeled conjugate with cells; type: cell-based, human
Experimental: HeLa pLuc/705 cells plated in a 48 well plate were treated with medium containing test substance. After incubation, cells were washed with PBS three times.
To measure the sum of membrane-bound and internalized fluorescence, cells were lysed directly in the wells by addition of 100 μl of cell lysis buffer (Promega, Madison, Wis.) to each well. Cell lysates were collected. The total fluorescence was determined by mixing 20 μl of cell lysate and 80 μl of 0.1 M Na2CO3 (pH 11) and measuring with an Flx 800 microplate fluorescence-luminescence reader with excitation at 485 nm and emission at 524 nm.
To measure internalized conjugate, the membrane-bound conjugate was removed by trypsinization, as follows. Trypsin (100 μl, 10%, Hyclone, Logan, Utah) was added to each well and incubated for 6 minutes at 37° C., followed by addition of 300 μl of culture media. The cells were spun down and washed with PBS, then lysed with 100 μl cell lysis buffer. The fluorescence of the cell lysate was measured as described above.

trypsin = assay: Degradation of conjugate by trypsin; type: in vitro ADME; settings: data not shown

Question: Which “incubation time after which luciferase was produced” value [1] does the source give for “R9F2C-PMO: covalent conjugate of PMO 705 and transport peptide R9F2 via cysteine; fluorescein-labeled in uptake studies (chain RRRRRRRRRFFC; antisense cctcttacctcagttaca; cysteine linkage; PMO; fluorescein; synthetic transport peptide; synthetic oligomer)” here?
Answer: 120 min

Question: What about the pattern of fluorescence ([2]; HeLa S3 cells) of the same substance?
Answer: less intense cytosolic diffuse fluorescence

Question: What about the pattern of fluorescence ([2]; HeLa cells) of the same substance?
Answer: mostly diffused fluorescence

Question: And the “location of fluorescence in cells” value ([2]; HeLa, NIH3T3 or HeLa pLuc/705 cells, 20 minutes treatment, DHE nuclear stain)?
Answer: Diffuse green fluorescence was seen in both cytoplasm and nucleus

Question: And the pattern of fluorescence ([2]; Jurkat cells)?
Answer: lowest level of fluorescence

Question: What about the pattern of fluorescence ([2]; NIH3T3 cells) of the same substance?
Answer: very bright and diffused cytosolic and nuclear fluorescence

Question: What about the “cells in which fluorescence was observed” value ([2]; all four cell lines, live cells) of the same substance?
Answer: 100%

Question: What about the “fluorescence of cells incubated at 37° C. compared with 17° C.” value (HeLa pLuc705 cells; 0.1 to 5 μM, 70 minutes) of the same substance?
Answer: similar

Question: And the “time at which cell fluorescence reached maximum intensity” value (HeLa pLuc705 cells; HeLa pLuc705 cells, 1 μM, 900 minute study period)?
Answer: 30 to 45 min

Question: What about the “adsorption with increasing concentration” value (HeLa pLuc705 cells; increase between 0.1-1 μM, not between 1-5 μM) of the same substance?
Answer: saturable

Question: What about the “sensitivity to degradation by trypsin” value (trypsin) of the same substance?
Answer: sensitive to degradation by trypsin
